Results from patent publication US8399482B2, “6-substituted isoquinolines and isoquinolinones” (Sanofi, priority 2008, dated 2013).

Key:
Type in all cases: biochemical
[1] = target: T1, human recombinant ROCK II (Homo sapiens, UniProt O75116); test: Determination of Rho kinase inhibition (ROCK II, Caliper peptide phosphorylation assay); details: respective form (salt or free base) as obtained in the examples, 60 min at 32° C.
T1 construct: recombinant human ROCK-II residues 11-552; His6 (N); purchased Millipore GmbH, Schwalbach, Germany
Description: To measure Rho-kinase inhibition, IC50 values were determined according to the following protocol:
Active human recombinant ROCK II (N-terminal His6-tagged recombinant human ROCK-II residues 11-552) was purchased from Millipore GmbH, Schwalbach, Germany. The peptide substrate, Fluorescein-[…]-COOH, was obtained from JPT Peptide Technologies, Berlin, Germany. Adenosine-5′-triphosphate (ATP), bovine serum albumine (BSA), dimethylsulphoxide (DMSO), 4-(2-hydroxyethyl)piperazine-1-ethanesulfonic acid (Hepes), Brij-35, dithiothreitol (DTT) and Pluronic F-68 were purchased from Sigma-Aldrich, Munich, Germany. Tris(hydroxymethyl)-aminomethane (Tris), magnesium chloride, NaOH, 1M HCl and EDTA were obtained from Merck Biosciences, Darmstadt, Germany. “Complete” protease inhibitor was from Roche Diagnostics, Mannheim, Germany. Test compounds were diluted to the appropriate concentrations in buffer 1 (25 mM Tris-HCl, pH 7.4, 5 mM MgCl2, 2 mM DTT, 0.02% (w/v) BSA, 0.01% Pluronic F-68 and 3% DMSO). The ROCK II enzyme was diluted to a concentration of 100 ng/mL in buffer 2 (25 mM Tris-HCl, pH 7.4, 5 mM MgCl2, 2 mM DTT and 0.02% (w/v) BSA). The peptide substrate and ATP were diluted to concentrations of 3 μM and 120 μM, respectively, in the buffer 2. Two μl of the compound solution were mixed with 2 μl of the diluted enzyme in a 384-well small volume microtiter plate (Greiner, Bio-One, Frickenhausen, Germany), and the kinase reaction was initiated by addition of 2 μl of the solution containing peptide substrate and ATP. After 60 min incubation at 32° C., the reaction was stopped by addition of 20 μl of a solution containing 100 mM Hepes-NaOH, pH 7.4, 0.015% (v/v) Brij-35, 45 mM EDTA and 0.227% chip coating reagent 1 (Caliper Lifescience Inc, Hopkinton, Mass.). Phosphorylation of the substrate peptide was then detected on a Caliper 3000 instrument essentially as described by Pommereau et al (J. Biomol. Screening 2004, 9(5), 409-416). Separation conditions were as follows: Pressure −1.3 psi, upstream voltage −1562 V, downstream voltage −500 V, sample sip time 200 ms. Positive controls (buffer 1 instead of compound) and negative controls (buffer 1 instead of compound and buffer 2 instead of ROCK II) were run in parallel on each plate.
The following products/compounds were tested in said assay by using the respective form (salt or free base) obtained as in the examples described above and the following activities were measured

recombinant human PKA = target: T2, recombinant human PKA (Homo sapiens, UniProt P17612); test: Determination of Protein Kinase A inhibition (selectivity); details: from IC50 values
T2 construct: recombinant human PKA (residues 1-351, N-terminal His-tag); His-tag (N); purchased Invitrogen, Karlsruhe, Germany
Description: (§1) 2) Determination of Protein Kinase a and Protein Kinase G Inhibition
(§2) To measure PKA and PKG1-beta inhibition, IC50 values were determined according to the following protocol:
(§3) Active recombinant human PKG1-beta (full-length, with N-terminal His-tag) was purchased from Millipore GmbH, Schwalbach, Germany. Active recombinant human PKA (residues 1-351, N-terminal His-tag) was obtained from Invitrogen, Karlsruhe, Germany. The peptide substrate, Fluorescein-[…]-COOH, was obtained from JPT Peptide Technologies, Berlin, Germany. Adenosine-5′-triphosphate (ATP), bovine serum albumine (BSA), dimethylsulphoxide (DMSO), 4-(2-Hydroxyethyl)piperazine-1-ethanesulfonic acid (Hepes), Brij-35, dithiothreitol (DTT) and Pluronic F-68 were purchased from Sigma-Aldrich, Munich, Germany. Tris(hydroxymethyl)-aminomethane (Tris), magnesium chloride, NaOH, 1M HCl and EDTA were obtained from Merck Biosciences, Darmstadt, Germany. “Complete” protease inhibitor was from Roche Diagnostics, Mannheim, Germany. Test compounds were diluted to the appropriate concentrations in buffer 1 (25 mM Tris-HCl, pH 7.4, 5 mM MgCl2, 2 mM DTT, 0.02% (w/v) BSA, 0.01% Pluronic F-68 and 3% DMSO). PKG1-beta and PKA were diluted to concentrations of 150 ng/ml and 30 ng/ml, respectively, in buffer 2. The peptide substrate and ATP were diluted to concentrations of 3 μM and 120 μM, respectively, in the buffer 2. Two μl of the compound solution were mixed with 2 μl of the diluted enzyme in a 384-well small volume microtiter plate (Greiner, Bio-One, Frickenhausen, Germany), and the kinase reaction was initiated by addition of 2 μl of the solution containing peptide substrate and ATP. After 60 min incubation at 32° C., the reaction was stopped by addition of 20 μl of a solution containing 100 mM Hepes-NaOH, pH 7.4, 0.015% (v/v) Brij-35, 45 mM EDTA and 0.227% chip coating reagent 1 (Caliper Lifescience Inc, Hopkinton, Mass.). Phosphorylation of the substrate peptide was then detected on a Caliper 3000 instrument essentially as described by Pommereau et al (J. Biomol. Screening 9(5), 409-416, 2004). Separation conditions were as follows: Pressure −1.3 psi, upstream voltage −1562 V, downstream voltage −500 V, sample sip time 200 ms, Positive controls (buffer 1 instead of compound) and negative controls (buffer 1 instead of compound and buffer 2 instead of kinase solution) were run in parallel on each plate. The following products/compounds were tested in said assay by using the respective form (salt or free base) obtained as in the examples described above and the following activities were measured.

[2] = target: T3, recombinant human PKG1-beta (Homo sapiens, UniProt Q13976); test: Determination of Protein Kinase G inhibition (selectivity); details: from IC50 values
T3 construct: PKG1-beta (full-length, with N-terminal His-tag); His-tag (N); purchased Millipore GmbH, Schwalbach, Germany
T3 sequence (Q13976 1-686 isoform Q13976-2): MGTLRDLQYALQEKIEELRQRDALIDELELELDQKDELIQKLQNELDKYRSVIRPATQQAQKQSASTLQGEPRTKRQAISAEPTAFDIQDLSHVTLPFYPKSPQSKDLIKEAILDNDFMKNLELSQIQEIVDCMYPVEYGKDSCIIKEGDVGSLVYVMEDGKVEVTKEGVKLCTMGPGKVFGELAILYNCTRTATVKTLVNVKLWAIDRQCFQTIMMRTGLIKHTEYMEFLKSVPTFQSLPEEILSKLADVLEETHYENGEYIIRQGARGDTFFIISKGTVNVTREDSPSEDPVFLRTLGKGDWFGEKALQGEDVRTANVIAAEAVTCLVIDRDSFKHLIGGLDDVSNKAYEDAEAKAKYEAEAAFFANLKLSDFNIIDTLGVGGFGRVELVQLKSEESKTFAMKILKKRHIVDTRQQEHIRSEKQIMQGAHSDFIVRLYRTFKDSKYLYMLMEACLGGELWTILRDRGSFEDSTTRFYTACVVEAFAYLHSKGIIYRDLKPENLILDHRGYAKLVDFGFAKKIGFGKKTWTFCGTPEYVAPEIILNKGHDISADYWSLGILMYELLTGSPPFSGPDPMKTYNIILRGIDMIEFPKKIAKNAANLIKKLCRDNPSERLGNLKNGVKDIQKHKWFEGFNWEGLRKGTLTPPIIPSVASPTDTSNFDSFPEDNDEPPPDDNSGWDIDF
Description: as §1, §2, §3

T1 sequence (O75116 11-552): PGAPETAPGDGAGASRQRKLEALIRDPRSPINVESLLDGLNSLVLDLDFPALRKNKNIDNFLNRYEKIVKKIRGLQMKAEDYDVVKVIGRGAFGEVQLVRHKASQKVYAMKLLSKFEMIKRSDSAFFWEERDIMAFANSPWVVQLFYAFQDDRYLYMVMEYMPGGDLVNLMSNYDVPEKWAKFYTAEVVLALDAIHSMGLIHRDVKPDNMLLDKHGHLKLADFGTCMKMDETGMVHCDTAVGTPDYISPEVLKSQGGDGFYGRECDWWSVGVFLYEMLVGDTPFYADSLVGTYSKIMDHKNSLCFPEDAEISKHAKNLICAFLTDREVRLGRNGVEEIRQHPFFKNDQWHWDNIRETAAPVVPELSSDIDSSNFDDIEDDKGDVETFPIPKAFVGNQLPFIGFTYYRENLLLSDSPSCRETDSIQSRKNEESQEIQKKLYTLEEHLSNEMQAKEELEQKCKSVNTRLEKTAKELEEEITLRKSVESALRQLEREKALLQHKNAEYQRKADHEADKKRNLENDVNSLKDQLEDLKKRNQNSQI

Row | SMILES | IC50 [1] [nM] | Selectivity against PKA (recombinant human PKA) [fold] | Selectivity against PKG [2] [fold]
1 | CCCC(N)C1(CC2CC2)CCC(Oc2cc3cc[nH]c(=O)c3cc2Cl)CC1 (single isomer, unassigned) [Example 14, 6-[4-(1-Amino-butyl)-4-cyclopropylmethyl-cyclohexyloxy]-7-chloro-2H-isoquinolin-1-one] | ≤ 10 | >1000 | >100
2 | CCCC(N)C1(CC2CC2)CCC(Oc2cc3cc[nH]c(=O)c3cc2Cl)CC1 (single isomer, unassigned) [Example 15, 6-[4-(1-Amino-butyl)-4-cyclopropylmethyl-cyclohexyloxy]-7-chloro-2H-isoquinolin-1-one] | 10 to 100 | >10 | >10
3 | NC(C1CC1)C1(CC2CC2)CCC(Oc2cc3cc[nH]c(=O)c3cc2Cl)CC1 (single isomer, unassigned) [Example 16, 6-[4-(Amino-cyclopropyl-methyl)-4-cyclopropylmethyl-cyclohexyloxy]-7-chloro-2H-isoquinolin-1-one] | ≤ 10 | >300 | >300
4 | NC(C1CC1)C1(CC2CC2)CCC(Oc2cc3cc[nH]c(=O)c3cc2Cl)CC1 (single isomer, unassigned) [Example 17, 6-[4-(Amino-cyclopropyl-methyl)-4-cyclopropylmethyl-cyclohexyloxy]-7-chloro-2H-isoquinolin-1-one] | 10 to 100 | >10 | >10
5 | CC(C)C(N)C1(CC2CC2)CCC(Oc2cc3cc[nH]c(=O)c3cc2Cl)CC1 (single isomer, unassigned) [Example 18, 6-[4-(1-Amino-2-methyl-propyl)-4-cyclopropylmethyl-cyclohexyloxy]-7-chloro-2H-isoquinolin-1-one] | ≤ 10 | >300 | >300
6 | CCC(N)C1(COC(C)C)CCC(Oc2cc3cc[nH]c(=O)c3cc2Cl)CC1 (single isomer, unassigned) [Example 19, 6-[4-(1-Amino-propyl)-4-isopropoxymethyl-cyclohexyloxy]-7-chloro-2H-isoquinolin-1-one] | 10 to 100 | >1000 | >300
7 | CC(N)C1(C2CCC2)CCC(Oc2cc3cc[nH]c(=O)c3cc2Cl)CC1 (single isomer, unassigned) [Example 21, 6-[4-(1-Amino-ethyl)-4-cyclobutyl-cyclohexyloxy]-7-chloro-2H-isoquinolin-1-one] | 10 to 100 | >300 | >100
8 | CCC(N)C1(C2CCC2)CCC(Oc2cc3cc[nH]c(=O)c3cc2Cl)CC1 (single isomer, unassigned) [Example 22, 6-[4-(1-Amino-propyl)-4-cyclobutyl-cyclohexyloxy]-7-chloro-2H-isoquinolin-1-one] | 10 to 100 | >300 | >100
9 | CCC(N)C1(C2CCC2)CCC(Oc2cc3cc[nH]c(=O)c3cc2Cl)CC1 (single isomer, unassigned) [Example 23, 6-[4-(1-Amino-propyl)-4-cyclobutyl-cyclohexyloxy]-7-chloro-2H-isoquinolin-1-one] | 100 to 1000 | >10 | >10
10 | NC(c1ccccc1)C1(C2CCCC2)CCC(Oc2cc3cc[nH]c(=O)c3cc2Cl)CC1 (single isomer, unassigned) [Example 25, 6-[4-(Amino-phenyl-methyl)-4-cyclopentyl-cyclohexyloxy]-7-chloro-2H-isoquinolin-1-one] | 10 to 100 | >300 | >100
11 | CCC(N)C1(C)CCC(Oc2cc3cc[nH]c(=O)c3cc2Cl)CC1 (single isomer, unassigned) [Example 27, 6-[4-(1-Amino-propyl)-4-methyl-cyclohexyloxy]-7-chloro-2H-isoquinolin-1-one] | 10 to 100 | >1000 | >1000
12 | CCC(N)C1(CC(C)C)CCC(Oc2cc3cc[nH]c(=O)c3cc2Cl)CC1 (single isomer, unassigned) [Example 28, 6-[4-(1-Amino-propyl)-4-isobutyl-cyclohexyloxy]-7-chloro-2H-isoquinolin-1-one] | 100 to 1000 | >10 | >10
13 | CCC(N)C1(Cc2ccccc2)CCC(Oc2cc3cc[nH]c(=O)c3cc2Cl)CC1 (single isomer, unassigned) [Example 30, 6-[4-(1-Amino-propyl)-4-benzyl-cyclohexyloxy]-7-chloro-2H-isoquinolin-1-one] | 10 to 100 | >300 | >10
14 | CC(C)C1(C(N)c2cncs2)CCC(Oc2cc3cc[nH]c(=O)c3cc2Cl)CC1 (single isomer, unassigned) [Example 47, 6-[4-(Amino-thiazol-5-yl-methyl)-4-isopropyl-cyclohexyl-oxy]-7-chloro-2H-isoquinolin-1-one] | 10 to 100 | >300 | >300
